# Test results: BindingDB's records for doi:10.1021/jm801065q (Novartis Institutes For Biomedical Research, 2008)
# pIC50: −log10 of the molar value.
# Key:
# [1] = Activity at CXCR4 in human Jurkat T cells assessed as inhibition of CXCL12-induced cell migration
# [2] = Activity at CXCR4 in rat IR983F cells assessed as inhibition of CXCL12-induced cell migration
smiles,measurement,setting,value
"C1=C(CS/C(=N\C2CCCCC2)NC2CCCCC2)N2CCN=C2S1 [1,3-dicyclohexyl-2-((5,6-dihydroimidazo[2,1-b]thiazol-3-yl)methyl)isothiourea]",pIC50,[1],7.24
same,pIC50,[2],7.54
